Data taken from patent US8183285B2, “Therapeutic agent for irritable bowel syndrome and methods thereof” (Takeda Pharmaceutical Company Limited, priority 2006, dated 2012).

Experiments:
viscerosensory response = test: Viscerosensory response test: abdominal oblique muscle contractions under colonic distension stimulus after 1% acetic acid instillation; type: in vivo; settings: male SD rats, oral 0.3, 3 and 30 mg/kg, 30 minutes before second colonic distension stimulus; FIG. 1
Experimental: For the experiment, 7 to 8 week-old male SD rats (CREA Japan, Inc.) were used. Under ether anesthesia, the rats were sutured with a force transducer (F12-IS-SL, Star Medical Inc.) on the abdominal oblique muscle, and used for the experiment after waiting at least one day or more postoperatively for recovery of the animals. After fasting for 18 hours, 1% acetic acid was instilled into the colon to produce a hypersensitive condition. One hour after the instillation of acetic acid, a balloon was inserted into the colon, fixed, and colonic distension stimulus was loaded for 10 minutes by inflating the balloon. The colonic distension stimulus was loaded two times before and after administration of compound A, and the observed contraction number of the abdominal oblique muscle was counted. The result was expressed as inhibition percent. Determination of the abdominal muscle contraction was conducted with the naked eye and waveform of force transducer. Compound A was suspended in a 0.5% methylcellulose, and administered orally with a volume of 4 mL/kg 30 minutes before the second colonic distension stimulus (0.3, 3 and 30 mg/kg).

[1] = tested on: restraint stress-induced defecation; test: Restraint stress-induced defecation test; type: in vivo; settings: male Wistar rats
Experimental: For the experiment, 10 week-old male Wistar rats (SLC) were used. Compound A (0.3, 3, 10 and 30 mg/kg) or a vehicle (control group, 0.5% methylcellulose) was administered orally with a dose of 4 ml/kg, and after 15 minutes, a restraint stress was loaded. Fecal pellets were retrieved 2 hours after the beginning of the restraint stress loading, and the number of feces was counted. In addition, as for normal group, rats were left in their individual cages without any after administration of vehicle, and the number of feces for 2 hours was counted. Experiment was carried out according to Test Example 2, wherein melatonin (10 and 30 mg/kg) instead of compound A was administered orally.

normal defecation = test: Normal defecation test; type: in vivo; settings: male Wistar rats, oral 30 mg/kg; FIG. 3
Experimental: Further, a study on normal defecation was also conducted. Until the day before the experiment, two rats were kept in a cage and accustomed to the measuring condition. On the day of experiment, compound A or vehicle (control group, 0.5% methylcellulose) was administered orally with a dose of 4 ml/kg, and after 15 minutes, the measurement of defecation was commenced. The number of feces was counted two hours after the initiation of measurement, and the result was expressed by the number of feces per two rats.

[2] = tested on: melatonin receptor MT1/MT2; settings: disclosed in U.S. Pat. No. 6,034,239; cited from earlier work
[3] = tested on: abdominal symptoms of irritable bowel syndrome; settings: female patients suffering from irritable bowel syndrome; cited from earlier work
[4] = tested on: partial restraint stress-induced defecation; settings: experimental model for irritable bowel syndrome; cited from earlier work

SMILES: CCC(=O)NCC[C@@H]1CCc2ccc3c(c21)CCO3 [compound A, (S)—N-[2-(1,6,7,8-tetrahydro-2H-indeno[5,4-b]furan-8-yl)ethyl]propionamide]
- inhibition of viscerosensory response (contraction number of abdominal oblique muscle, inhibition percent) (viscerosensory response): dose-dependent significant inhibition action
- inhibition of restraint stress-induced defecation (number of feces for 2 hours) ([1]; oral 30 mg/kg, 15 minutes before restraint stress, FIG. 2): inhibited significantly
- inhibition of normal defecation (number of feces per two rats, 2 hours) (normal defecation): not inhibited
- melatonin receptor MT1/MT2 agonistic action [2]: has a melatonin receptor MT1/MT2 agonistic action

SMILES: COc1ccc2[nH]cc(CCNC(C)=O)c2c1 [melatonin]
- inhibition of restraint stress-induced defecation (number of feces for 2 hours) ([1]; oral 10 and 30 mg/kg, FIG. 4): did not inhibit
- improvement of abdominal symptoms (abdominal pain, abdominal bloating, sense of urgency for defecation) [3]: improves significantly
- inhibitory action on partial restraint stress-induced defecation [4]: shows an inhibitory action
